Legend:
[1] = biological target: T1, PTP1B (Homo sapiens, UniProt P18031); assay: Enzyme kinetics studies, type of inhibition (Lineweaver-Burk); conditions: for type of inhibition: Lineweaver-Burk plot
T1 sequence (P18031 1-435): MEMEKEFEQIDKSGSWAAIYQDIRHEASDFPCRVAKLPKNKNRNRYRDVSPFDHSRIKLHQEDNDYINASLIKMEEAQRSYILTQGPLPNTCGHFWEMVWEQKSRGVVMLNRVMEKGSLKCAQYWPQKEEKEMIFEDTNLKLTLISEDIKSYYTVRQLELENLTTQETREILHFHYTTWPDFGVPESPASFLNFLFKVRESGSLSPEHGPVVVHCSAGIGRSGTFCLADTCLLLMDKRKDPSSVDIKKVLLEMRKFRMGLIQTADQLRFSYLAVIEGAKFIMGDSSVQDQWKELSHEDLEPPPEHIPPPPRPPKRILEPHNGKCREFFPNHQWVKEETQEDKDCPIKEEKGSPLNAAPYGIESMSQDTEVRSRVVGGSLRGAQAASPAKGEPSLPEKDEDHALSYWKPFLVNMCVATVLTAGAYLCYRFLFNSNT
Experimental: The assay was carried out with different concentrations of inhibitor (0, 0.005, 0.040 and 0.060 mM) and substrate (0.10, 0.20, 0.30, 0.40, and 0.50 mM). Kinetic parameters (Vmax, Km, and Ki) were obtained by nonlinear regression fit analysis using Origin 2018 software.

[2] = biological target: T1, PTP1B; assay: In vitro spectrophotometric PTP1B inhibition assay (pNPP substrate); assay type: biochemical
Experimental: The spectrophotometric method previously described was used.[39] The compounds and the positive control were dissolved in dimethylsulfoxide (DMSO). Aliquots of 0–10 μL solution of the compounds to be tested (in triplicate) were incubated with 85 μL of the enzyme (66 nM) in Tris [50 mM; Tris‐HCI Buffer, pH 6.8] and 5 microliters of the substrate (pNPP, 10 mM), for 15 min at 37 °C. After incubation, the absorbance was determined. The inhibitory activity for the compounds was determined as a percentage compared to the blank (Tris) according to the following equation: (1) %PTP1B=1-A415t/A415cX100%
Where %PTP1B is the percentage inhibition, A415t is the corrected absorbance of the tested compound (A415 final‐A415 initial), and A415c is the corrected absorbance of the blank (A415 final blank‐A415 initial target). The IC50 was calculated by regression analysis using the following equation: (2) %Inhibition=A100/1+I/CI50^s

[3] = design: method as in PMID 11375780; conditions: cited from earlier work
[4] = design: method as in PMID 19961047; conditions: ingestion during pregnancy or shortly before conception; cited from earlier work

Question: Which Ki [1] does the source give for CC1=C(/C=C/C(C)=C/C=C/C(C)=C\C(=O)O)C(C)(C)CCC1 [3a, 13‐cis‐retinoic acid] here?
Answer: 23.4 ± 2 µM

Question: What about the type of inhibition [1] of the same compound?
Answer: competitive inhibition

Question: What about the type of inhibition ([1]; listed as 13‐cis‐retinoic acid) of the same compound?
Answer: competitive PTP1B inhibitor

Question: What about the IC50 ([2]; PTP1B 66 nM, pNPP, Tris pH 6.8, 15 min at 37 °C) of the same compound?
Answer: 44 µM

Question: What about the “inhibitory activity against PTP1B” value ([2]; compounds evaluated at 2 mM) of the same compound?
Answer: significant inhibitory activity

Question: What about the DE50 for humans [3] of the same compound?
Answer: 0.4 mg/kg

Question: What about the teratogenic effect [4] of the same compound?
Answer: teratogen
